In patent US10981932B2, “Macrocyclic indole derivatives” (Bayer Aktiengesellschaft, priority 2016, dated 2021) one finds IC50 and EC50 data, which are given here for 11 compounds.

Counter-ions that a name gives are not always drawn.

In assay [1] the target is MCL-1 (Homo sapiens, UniProt Q07820). Kind of assay: Protein-protein interaction assay MCL-1/Noxa BH3 peptide (MCL-1 assay), TR-FRET. In kind it is binding. The note with it: MBP-MCL-1 / Noxa BH3-derived peptide, median. The essentials: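 MBP-MCL-1 (1 nM final) was preincubated 10 min at 22 °C with compounds (11 concentrations, 0.1 nM–20 μM, duplicates) in Tris pH 7 buffer with NaCl, KF, Tween-20, DTT and BGG. After 1 h at 22 °C in the dark plus overnight at 4 °C, anti-MBP Eu-cryptate/streptavidin-XL665 TR-FRET was read; IC50 came from a 4-parameter fit.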
Sequence of MCL-1 (Q07820 whole entry): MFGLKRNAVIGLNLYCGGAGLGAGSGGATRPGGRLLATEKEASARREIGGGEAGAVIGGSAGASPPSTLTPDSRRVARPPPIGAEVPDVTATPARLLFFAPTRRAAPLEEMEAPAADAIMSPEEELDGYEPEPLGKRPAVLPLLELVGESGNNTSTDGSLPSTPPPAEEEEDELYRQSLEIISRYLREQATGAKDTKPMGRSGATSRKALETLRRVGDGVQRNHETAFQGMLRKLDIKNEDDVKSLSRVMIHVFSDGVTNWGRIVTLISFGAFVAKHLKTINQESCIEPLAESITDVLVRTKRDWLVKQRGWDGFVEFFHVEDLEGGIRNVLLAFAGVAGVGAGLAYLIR
In general terms: Time-resolved FRET reads energy transfer from a long-lived donor to a nearby acceptor.

In assay [2] the target is T1, BCL-2 (Homo sapiens, UniProt P10415).
T1 construct: BCL-2 (amino acids 1-211, C-terminal fused to a hexahistidine (6×His) tag); purchased BPS Bioscience (San Diego, Calif., USA); host or cells: E. coli
T1 sequence (P10415 1-211): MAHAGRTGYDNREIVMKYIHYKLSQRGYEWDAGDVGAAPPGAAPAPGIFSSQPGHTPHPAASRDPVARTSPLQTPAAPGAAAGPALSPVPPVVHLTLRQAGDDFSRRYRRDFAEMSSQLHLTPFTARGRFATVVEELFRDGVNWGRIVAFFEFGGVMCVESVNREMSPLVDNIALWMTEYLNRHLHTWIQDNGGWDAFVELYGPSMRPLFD
Description: Protein-protein interaction assay BCL-2/Bad BH3 peptide (BCL-2 assay), TR-FRET. In kind it is binding. The settings on record: His-BCL-2 / Bad BH3-derived peptide, median. Here is the method: Protein-Protein Interaction Assay: BCL-2/Bad BH3 Peptide (BCL-2 Assay)
The dose-dependent inhibition by the compounds described in this invention of the interaction between BCL-2 and the BH3 domain of Bad (both human) was determined using a steady state binding competition assay with time-resolved fluorescence energy transfer (TR-FRET) readout. For that purpose BCL-2 (amino acids 1-211, C-terminal fused to a hexahistidine (6×His) tag and a synthetic Bad BH3-derived peptide of sequence Biotin-PEG2-PEG2-NLWAAQRYGRELRR-Nle-SDEFVDSFKK-amide (SEQ ID NO: 2) served as protein receptor and tracer ligand respectively. The recombinant BCL-2 protein (expressed in E. coli) was purchased from BPS Bioscience (San Diego, Calif., USA). The Bad BH3-derived peptide can be obtained from e.g. Biosyntan (Berlin, Germany).
In the assay 11 different concentrations of each compound (0.1 nM, 0.33 nM, 1.1 nM, 3.8 nM. 13 nM, 44 nM, 0.15 μM, 0.51 μM, 1.7 μM, 5.9 μM and 20 μM) were typically measured as duplicates in the same microtiter plate. For that, 100-fold concentrated DMSO solutions were prepared by serial dilutions (1:3.4) of a 2 mM stock solution in a clear, 384-well microtiter plate (Greiner Bio-One, Frickenhausen, Germany). From there, 50 nl were transferred in a dark test plate (Greiner Bio-One. Frickenhausen, Germany). The assay was initiated by addition of 2 μl of a 2,5-fold concentrated His-BCL-2 solution (usually for a 1 nM end concentration in 5 μl reaction volume) in aqueous assay buffer [50 mM Tris/HCl pH 7, 100 mM sodium chloride (NaCl), 50 mM potassium fluoride (KF), 0.005% Tween-20, 2 mM DTT, 0.1% bovine gamma globulin (BGG)] to the compounds in the assay plate. This was followed by a 10-minute incubation step at 22° C. for pre-equilibration of the putative complex between His-BCL-2 and the compounds.
The mixture was incubated in the dark for one hour at 22° C. and then overnight at 4° C. The formation of BCL-2/Bad complexes was determined by measuring the resonance energy transfer of the anti-His-Eu-cryptate antibody to the streptavidin-XL665 present in the reaction. For that purpose, the fluorescence emission at 620 nm and 665 nm after excitation at 330-350 nm was measured in a TR-FRET measuring instrument, for instance a Rubystar or a Pherastar (both from BMG Lab Technologies. Offenburg, Germany) or a Viewlux (Perkin-Elmer). The ratio of the emission at 665 nm and at 622 nm was used as indicator of the amount of BCL-2/Bad complexes present.
The resulting data (ratio) were normalized, taking 0% inhibition as the mean value of control measurements (usually 32 data points) where all reagents were included. In this case 50 nl DMSO were used instead of compounds. A 100% inhibition corresponded to the mean value of control measurements (usually 32 data points) where all reagents except BCL-2 were included. IC50 values were determined by regression analysis based on a 4 parameter equation (minimum, maximum, IC50, Hill; Y=Max+(Min−Max)/(1+(X/IC50)^Hill) using the Screener Software (Genedata).

The test system of assay [3] is SUDHL10. Description: Induction of caspase-3/7 activity (Caspase-Glo 3/7), SUDHL10. The note with it: caspase-3/7 induction, SUDHL10 cells, 3 h treatment, median. In kind it is cell-based. In short, it runs like this:
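Caspase-Glo 3/7 luminescence measured after 3 h compound exposure at 37 °C in SUDHL10 and SUDHL5 cells. EC50 values come from background-corrected signals, with curve bottom set to 1 and plateau set to maximal induction by the reference compound.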

Consider `Cc1ccc2c(CCCOc3cccc4ccccc34)c(C(=O)O)n3c2c1-c1c(nn(C)c1C)CN(C)CCC3` (single isomer, unassigned; enantiomer 1) [Example 073, 7,10,11,12-tetramethyl-1-[3-(naphthalen-1-yloxy)propyl]-4,5,6,7,8,10-hexahydropyrazolo[3′,4′:7,8][1,5]diazecino[9,10,1-hi]indole-2-carboxylic Acid (Enantiomer 1)], for which the IC50 in assay [1] is 0.00206 µM; in assay [2], above 20 µM. For the same compound, the EC50 in assay [3] was 2.94 µM.

Turning to `CCn1nc2c(c1C1CC1)-c1cccc3c(CCCOc4cccc5ccccc45)c(C(=O)O)n(c13)CCCCOC2` (single isomer, unassigned; enantiomer 1) [Example 082, 3-cyclopropyl-2-ethyl-7-[3-(naphthalen-1-yloxy)propyl]-2,10,11,12,13,15-hexahydropyrazolo[4′,3′:9,10][1,6]oxazacycloundecino[8,7,6-hi]indole-8-carboxylic acid-N-ethylethanamine Salt (Enantiomer 1)], the values for the IC50 in assay [1] and in assay [2] were 0.00437 µM and above 20 µM, respectively. This compound showed an EC50 in assay [3] (Homo sapiens, SU-DHL10, 3 h) of 30.5 µM.

For `COCCn1nc2c(c1C1CC1)-c1cccc3c(CCCOc4cccc5ccccc45)c(C(=O)O)n(c13)CCCCOC2` (single isomer, unassigned; enantiomer 1) [Example 085, 3-Cyclopropyl-2-(2-methoxyethyl)-7-[3-(naphthalen-1-yloxy)propyl]-2,10,11,12,13,15-hexahydropyrazolo[4′,3′:9,10][1,6]oxazacycloundecino[8,7,6-hi]indole-8-carboxylic acid-N-ethylethanamine Salt (Enantiomer 1)], the 50% inhibitory concentration (IC50) in assay [1] was 0.00451 µM; in assay [2], above 20 µM. The compound further gave a concentration giving a half-maximal response (EC50) in assay [3] of 15.5 µM.

For `Cc1c2c(nn1C1CC1)COCCCCn1c(C(=O)O)c(CCCOc3cccc4ccccc34)c3cccc-2c31` (single isomer, unassigned; enantiomer 1) [Example 093, 2-cyclopropyl-3-methyl-7-[3-(naphthalen-1-yloxy)propyl]-2,10,11,12,13,15-hexahydropyrazolo[4′,3′:9,10][1,6]oxazacycloundecino[8,7,6-hi]indole-8-carboxylic acid-N-ethylethanamine Salt (Enantiomer 1)], the 50% inhibitory concentration (IC50) was 0.00119 µM in assay [1] and above 20 µM in assay [2]. Besides, the midpoint of the response in assay [3], the EC50, lay at 6.64 µM.

With `COCCn1nc2c(c1C)-c1cccc3c(CCCOc4cccc5ccccc45)c(C(=O)O)n(c13)CCCCOC2` (single isomer, unassigned; enantiomer 1) [Example 107, 2-(2-methoxyethyl)-3-methyl-7-[3-(naphthalen-1-yloxy)propyl]-2,10,11,12,13,15-hexahydropyrazolo[4′,3′:9,10][1,6]oxazacycloundecino[8,7,6-hi]indole-8-carboxylic acid-N-ethylethanamine Salt (Enantiomer 1)], the IC50 in assay [1] was 0.00171 µM; in assay [2], above 20 µM. For the same compound, the 50% effective concentration (EC50) in assay [3] turned out to be 4.91 µM.

For the compound `CCc1c2c(nn1C)CN(C)CCCn1c(C(=O)O)c(CCCOc3cccc4ccccc34)c3ccc(C)c-2c31` (single isomer, unassigned; enantiomer 1) [Example 145, 11-Ethyl-7,10,12-trimethyl-1-[3-(1-naphthyloxy)propyl]-4,5,6,7,8,10-hexahydropyrazolo[3′,4′:7,8][1,5]diazecino[9,10,1-hi]indole-2-carboxylic acid-N-ethylethanamine Salt (Enantiomer 1)], the values for the IC50 in assay [1] and in assay [2] were 0.00117 µM and above 20 µM, respectively. Besides, in assay [3], a half-maximal response (EC50) required 2.57 µM.

Turning to `CCc1c2c(nn1C)COCCCCn1c(C(=O)O)c(CCCOc3cccc4ccccc34)c3cccc-2c31` (single isomer, unassigned; enantiomer 1) [Example 148, 3-Ethyl-2-methyl-7-[3-(1-naphthyloxy)propyl]-2,10,11,12,13,15-hexahydropyrazolo[4′,3′:9,10][1,6]oxazacycloundecino[8,7,6-hi]indole-8-carboxylic acid-N-ethylethanamine Salt (Enantiomer 1)], the IC50 was 0.000919 µM in assay [1] and above 20 µM in assay [2]. Also, in assay [3], a half-maximal response (EC50) required 3.48 µM.

`CCc1c2c(nn1C)COCCCCn1c(C(=O)O)c(CCCOc3cccc4ccccc34)c3ccc(C)c-2c31` (single isomer, unassigned; enantiomer 1) [Example 154, 3-Ethyl-2,4-dimethyl-7-[3-(1-naphthyloxy)propyl]-2,10,11,12,13,15-hexahydropyrazolo[4′,3′:9,10][1,6]oxazacycloundecino[8,7,6-hi]indole-8-carboxylic acid-N-ethylethanamine Salt (Enantiomer 1)]: the IC50 in assay [1] is 0.00128 µM; in assay [2], above 20 µM. Also, in assay [3], the response was half-maximal at 1.7 µM (EC50).

In the case of `Cn1nc(COc2ccc(N3CCN(S(C)(=O)=O)CC3)cc2)c2c1COCCCCn1c(C(=O)O)c(CCCOc3cccc4ccccc34)c3cccc-2c31` (single isomer, unassigned; enantiomer 2) [Example 1-10, 1-methyl-3-({4-[4-(methylsulfonyl)piperazin-1-yl]phenoxy}methyl)-7-[3-(naphthalen-1-yloxy)propyl]-1,10,11,12,13,15-hexahydropyrazolo[4′,3′:9,10][1,6]oxazacycloundecino[8,7,6-hi]indole-8-carboxylic acid (enantiomer 2)], the IC50 in assay [1] was 0.00093 µM; in assay [2], above 20 µM. This compound returned a 50% effective concentration (EC50) in assay [3] of 0.755 µM.

Turning to `Cn1nc(COc2ccc(N3CCN(S(=O)(=O)C4CC4)CC3)cc2)c2c1COCCCCn1c(C(=O)O)c(CCCOc3cccc4ccccc34)c3cccc-2c31` (single isomer, unassigned; enantiomer 2) [Example 1-13, 3-({4-[4-(cyclopropylsulfonyl)piperazin-1-yl]phenoxy}methyl)-1-methyl-7-[3-(naphthalen-1-yloxy)propyl]-1,10,11,12,13,15-hexahydropyrazolo[4′,3′:9,10][1,6]oxazacycloundecino[8,7,6-hi]indole-8-carboxylic Acid (Enantiomer 2)], the results for the IC50 in assay [1] and in assay [2] were 0.000796 µM and above 20 µM, respectively. This compound also yielded an EC50 in assay [3] of 0.614 µM.

Take `COCc1nn(C)c2c1-c1cccc3c(CCCOc4cccc5ccccc45)c(C(=O)O)n(c13)CCCN(C)C2` (single isomer, unassigned; enantiomer 2) [Example 1-104, 11-(methoxymethyl)-7,9-dimethyl-1-[3-(1-naphthyloxy)propyl]-4,5,6,7,8,9-hexahydropyrazolo[3′,4′:7,8][1,5]diazecino[9,10,1-hi]indole-2-carboxylic Acid (Enantiomer 2)]: the IC50 in assay [1] was 0.00355 µM; in assay [2], above 20 µM. The EC50 in assay [3] came to 8.64 µM.

As usually defined, the IC50 is the concentration that inhibits the measured activity by half. Low values mean greater potency, high ones weaker potency. For orientation: EC50 means the concentration at which the effect is half-maximal. A high value points to lower potency in that assay.
